The record followed here is patent publication US10233161B2, “Pharmaceutical compositions and salts of a 1,2,4-oxadiazole benzoic acid” (PTC Therapeutics, Inc., priority 2014, dated 2019).

Series [1] in a line: Comparative equilibrium solubility study of micronized and non-micronized Compound 1. It counts as physicochemical. Particulars: for Concentration of Compound 1 in 0.1N HCl + 0.5% SLS: pH 1; for Concentration of Compound 1 in PBS: pH 7.4. As to the method: Objective: The purpose of this study was to evaluate the solubility of micronized and non-micronized Compound 1. The solubility study was conducted in two representative media in pH 1 (0.1 N HCl with 0.5% sodium lauryl sulfate) and in pH 7.4 (0.1M phosphate buffered saline). The experiment further compared the initial rate of dissolution and equilibrium solubilities of micronized and non-micronized Compound 1 over a period of time.
Solubility measurement procedure comprised the steps of: 1) weighing and mixing approximately 100 mg of micronized Compound 1 and 100 mL of 0.1N HCl with 0.5% SLS into amber jar 1; 2) weighing and mixing approximately 100 mg of micronized Compound 1 and 100 mL of PBS into amber jar 2; 3) weighing and mixing approximately 100 mg of non-micronized Compound 1 and 100 mL of 0.1N HCl with 0.5% SLS into amber jar 3; 4) weighing and mixing approximately 100 mg of non-micronized Compound 1 and 100 mL of PBS into amber jar 4; 5) mixing all samples in their respective amber jars using a multi purpose rotator for 2 hours; 4) sampling at 5 minutes, 10 minutes, 30 minutes, 60 minutes, 90 minutes, 120 minutes; 5) filtering the samples and 6) analyzing the filtrates using HPLC. For each time point, 10 mL of sample was drawn using a 10 mL syringe with a needle attached filter and using a syringe-top 0.45 μm PTFE syringe filter. The first 9 mL of the samples collected were put back into the original amber jar and then remaining 1 mL was transferred to HPLC vial for analysis.

Series [2] in a line: Quantitative whole body autoradiography, Long Evans rats. The class given is in vivo. The note with it: 50 mg/kg single oral. As to the method:
(§1) Two studies were performed to evaluate the concentrations of Compound 1/metabolites in various tissues, including the eyes, following a single dose administration of radiolabeled Compound 1 (^14C-3-[5-(2-fluoro-phenyl)-[1,2,4]oxadiazol-3-yl]benzoic acid) to Sprague Dawley and Long Evans rats.
Long Evans rats: In a quantitative whole body autoradiography (QWBA) study, 8 male Long Evans rats (partially pigmented) obtained from Harlan were administered a single oral gavage dose of 50 mg/kg ^14C-Compound 1.
Animals were individually housed and certified rodent diet and water were provided ad libitum. Animals were acclimated for 3 days prior to dose administration. Environmental controls for the animal room were set to maintain a temperature of 18 to 26° C., a relative humidity of 50±20%, and a 12-hour light/12-hour dark cycle. As necessary, the 12-hour dark cycle was interrupted to accommodate study procedures. Animals were fasted overnight through 4 hours postdose on the day of dosing. At dosing, the animals weighed 160 to 178 g and were approximately 7 weeks of age. One animal/time point was sacrificed via exsanguination (cardiac puncture) under isoflurane anesthesia at 0.5, 1, 2, 4, 8, 24, 72, and 168 hours postdose.

Series [3] in a line: Quantitative whole body autoradiography, Sprague Dawley rats. It counts as in vivo. Particulars: 1 hr, 50 mg/kg single oral. As to the method: as §1
Sprague Dawley rats: As part of a quantitative whole body autoradiography (QWBA) study, 4 male and 4 female Sprague Dawley rats (albino) obtained from Charles River were administered a single oral gavage dose of 50 mg/kg ^14C-3-[5-(2-fluoro-phenyl)-[1,2,4]oxadiazol-3-yl]benzoic acid.
Animals were individually housed and certified rodent diet and water were provided ad libitum. Animals were acclimated for 8 days prior to dose administration. Environmental controls for the animal room were set to maintain a temperature of 18 to 26° C., a relative humidity of 50±20%, and a 12-hour light/12-hour dark cycle. The 12-hour dark cycle may have been interrupted to accommodate study procedures. Animals were fasted overnight through 4 hours postdose on the day of dosing. At dosing, the animals weighed 204 to 260 g and were approximately 9 to 11 weeks of age. […] The concentrations of ^14C-3-[5-(2-fluoro-phenyl)-[1,2,4]oxadiazol-3-yl]benzoic acid in the eye and related tissues are shown in the following table.

In the case of `O=C(O)c1cccc(-c2noc(-c3ccccc3F)n2)c1` [Micronized Compound 1], the “Concentration of Compound 1 in 0.1N HCl + 0.5% SLS” value in series [1] (5 minutes) is 6.85 µg/mL; in series [1] (10 minutes), 6.81 µg/mL; in series [1] (30 minutes), 6.83 µg/mL; in series [1] (60 minutes), 7.04 µg/mL; in series [1] (90 minutes) it was 6.88 µg/mL; in series [1] (120 minutes), 7.18 µg/mL. Further, the “Concentration of Compound 1 in PBS” value is 189.13 µg/mL in series [1] (5 minutes); 191.45 µg/mL in series [1] (10 minutes); 197.59 µg/mL in series [1] (30 minutes); 199.95 µg/mL in series [1] (60 minutes); 200.29 µg/mL in series [1] (90 minutes); 203.08 µg/mL in series [1] (120 minutes).
Consider `O=C(O)c1cccc(-c2noc(-c3ccccc3F)n2)c1` [Non-Micronized Compound 1], for which the “Concentration of Compound 1 in 0.1N HCl + 0.5% SLS” value in series [1] (5 minutes) amounted to 6.24 µg/mL; in series [1] (10 minutes), 6.38 µg/mL; in series [1] (30 minutes), 6.87 µg/mL; in series [1] (60 minutes), 6.99 µg/mL; in series [1] (90 minutes), 6.97 µg/mL; in series [1] (120 minutes) it was 7.04 µg/mL. Moreover, the “Concentration of Compound 1 in PBS” value in series [1] (5 minutes) was 141.89 µg/mL; in series [1] (10 minutes), 152.59 µg/mL; in series [1] (30 minutes), 176.92 µg/mL; in series [1] (60 minutes), 185.18 µg/mL; in series [1] (90 minutes), 194.06 µg/mL; in series [1] (120 minutes), 196.54 µg/mL.
For the molecule “^14C-3-[5-(2-fluoro-phenyl)-[1,2,4]oxadiazol-3-yl]benzoic acid”, the Concentrations of radioactivity is 28.0 µg/g in series [2] (Exorbital lacrimal gland, 0.5 hr); 7.59 µg/g in series [2] (Exorbital lacrimal gland, 1 hr); 22.4 µg/g in series [2] (Exorbital lacrimal gland, 2 hr); 10.2 µg/g in series [2] (Exorbital lacrimal gland, 4 hr); 8.09 µg/g in series [2] (Exorbital lacrimal gland, 8 hr); “BLQ (BLQ = below the limit of quantitation (<0.457 μg equivalents ^14C-3-[5-(2-fluoro-phenyl)-[1,2,4]oxadiazol-3-yl]benzoic acid))” in series [2] (Exorbital lacrimal gland, 24 hr). The Concentrations of radioactivity entry in series [2] (Exorbital lacrimal gland, 72 hr) was “BLQ (BLQ = below the limit of quantitation (<0.457 μg equivalents ^14C-3-[5-(2-fluoro-phenyl)-[1,2,4]oxadiazol-3-yl]benzoic acid))”; in series [2] (Eye (lens), 0.5 hr) it was “BLQ (BLQ = below the limit of quantitation (<0.457 μg equivalents ^14C-3-[5-(2-fluoro-phenyl)-[1,2,4]oxadiazol-3-yl]benzoic acid))”; in series [2] (Eye (lens), 1 hr) it was “BLQ (BLQ = below the limit of quantitation (<0.457 μg equivalents ^14C-3-[5-(2-fluoro-phenyl)-[1,2,4]oxadiazol-3-yl]benzoic acid))”; in series [2] (Eye (lens), 2 hr), “BLQ (BLQ = below the limit of quantitation (<0.457 μg equivalents ^14C-3-[5-(2-fluoro-phenyl)-[1,2,4]oxadiazol-3-yl]benzoic acid))”; in series [2] (Eye (lens), 4 hr), “BLQ (BLQ = below the limit of quantitation (<0.457 μg equivalents ^14C-3-[5-(2-fluoro-phenyl)-[1,2,4]oxadiazol-3-yl]benzoic acid))”; in series [2] (Eye (lens), 8 hr) it was “BLQ (BLQ = below the limit of quantitation (<0.457 μg equivalents ^14C-3-[5-(2-fluoro-phenyl)-[1,2,4]oxadiazol-3-yl]benzoic acid))”. The Concentrations of radioactivity entry in series [2] (Eye (lens), 24 hr) was “BLQ (BLQ = below the limit of quantitation (<0.457 μg equivalents ^14C-3-[5-(2-fluoro-phenyl)-[1,2,4]oxadiazol-3-yl]benzoic acid))”; in series [2] (Eye, 0.5 hr) it was 4.59 µg/g; in series [2] (Eye, 1 hr), 1.78 µg/g; in series [2] (Eye, 2 hr) it was 3.62 µg/g; in series [2] (Eye, 4 hr), 2.69 µg/g; in series [2] (Eye, 8 hr) it was 2.08 µg/g. For the same molecule, the Concentrations of radioactivity result in series [2] (Eye, 24 hr) was “BLQ (BLQ = below the limit of quantitation (<0.457 μg equivalents ^14C-3-[5-(2-fluoro-phenyl)-[1,2,4]oxadiazol-3-yl]benzoic acid))”; in series [2] (Hardenian gland, 0.5 hr), 46.8 µg/g; in series [2] (Hardenian gland, 1 hr), 16.0 µg/g; in series [2] (Hardenian gland, 2 hr) it was 38.2 µg/g; in series [2] (Hardenian gland, 4 hr) it was 18.1 µg/g; in series [2] (Hardenian gland, 8 hr) it was 13.0 µg/g. Moreover, the Concentrations of radioactivity in series [2] (Hardenian gland, 24 hr) is 1.59 µg/g; in series [2] (Intra-orbital lacrimal gland, 0.5 hr), 28.8 µg/g; in series [2] (Intra-orbital lacrimal gland, 1 hr), 10.3 µg/g; in series [2] (Intra-orbital lacrimal gland, 2 hr), 25.2 µg/g; in series [2] (Intra-orbital lacrimal gland, 4 hr), 11.7 µg/g; in series [2] (Intra-orbital lacrimal gland, 8 hr), 10.3 µg/g. The Concentrations of radioactivity result in series [2] (Intra-orbital lacrimal gland, 24 hr) is “BLQ (BLQ = below the limit of quantitation (<0.457 μg equivalents ^14C-3-[5-(2-fluoro-phenyl)-[1,2,4]oxadiazol-3-yl]benzoic acid))”; in series [2] (Uveal tract, 0.5 hr) it was 20.6 µg/g; in series [2] (Uveal tract, 1 hr), 10.4 µg/g; in series [2] (Uveal tract, 2 hr), 18.1 µg/g; in series [2] (Uveal tract, 4 hr) it was 6.09 µg/g; in series [2] (Uveal tract, 8 hr) it was 11.6 µg/g. In addition, the Concentrations of radioactivity result is “BLQ (BLQ = below the limit of quantitation (<0.457 μg equivalents ^14C-3-[5-(2-fluoro-phenyl)-[1,2,4]oxadiazol-3-yl]benzoic acid))” in series [2] (Uveal tract, 24 hr); 10.3 µg/g in series [3] (Female, Exorbital lacrimal gland); 18.7 µg/g in series [3] (Female, Harderian gland); 10.2 µg/g in series [3] (Female, Intra-orbital lacrimal gland); 1.41 µg/g in series [3] (Female, matrix cell blank (first line)); 21.1 µg/g in series [3] (Male, Exorbital lacrimal gland). Further, the Concentrations of radioactivity was determined as 3.39 µg/g in series [3] (Male, Eye); 21.6 µg/g in series [3] (Male, Harderian gland); 21.8 µg/g in series [3] (Male, Intra-orbital lacrimal gland).
